Measured values from patent publication US20200206231A1, “TOPICAL PHARMACEUTICAL COMPOSITION, METHOD FOR PRODUCING THE TOPICAL PHARMACEUTICAL COMPOSITION, USE OF TOPICAL PHARMACEUTICAL COMPOSITION AND METHOD FOR TOPICAL TREATMENT OF PSORIASIS, ATOPIC DERMATITIS OR CHRONIC ECZEMA” (BIOLAB SANUS FARMACÊUTICA LTDA., priority 2012, published 2020).

Experiments:
Assay type in all cases: cell-based
Conditions in all cases: human keratinocytes + LPS, 48 hours, mean ± standard deviation
IL-1 = assay: Production of IL-1 in LPS-stimulated human keratinocyte culture (sandwich ELISA)
Protocol: (§1) the effect of formulation 1 (described in example 1) was evaluated In this study, in the synthesis of inflammatory mediators: IL-1, IL-6, IL-8, IL-10, IL-12, prostaglandin E2 (PGE2), Leukotriene B4 (LBT4), interferon gamma (IFN-gamma) and tumor necrosis factor alpha (TNF-alpha) in a culture of human keratinocytes in basal condition and stimulated with bacterial lipopolysaccharides (LPS), to simulate the inflammatory response.
(§2) Human keratinocytes (Cascade Biologics, USA) were sown in 75 cm^2 bottles (Corning Inc, USA), cultured and expanded in a wet incubator to 37° C. in the presence of CO2, using a specific culture medium. When reaching confluence, cells were seeded in 24 well plates (Nunc, USA) for further incubation with non-toxic dilutions of formulation 1, described in example 1, and for evaluation of proposed mediators.
(§3) The evaluated concentrations were 0.0002; 0.0001; and 0.000025 and 0.00005% (w/v).
(§4) Cells were kept in touch with dilutions of the formulations and LPS (Sigma, USA) for 48 hours for further collection of the supernatant and the cell lysate. As a positive control of production of mediators, the cells were kept in touch only with LPS (Sigma, USA) in the same amount administered along with the formulations (samples), and as a basal control, cells alone were used, without the presence of LPS or formulations.
(§5) Quantification of inflammatory mediators (IL-1, IL-6, IL-8, IL-10, IL-12, IFN-gamma and TNF-alpha) was performed using a kit of enzyme-linked immunosorbent assay (sandwich ELISA) commercially available. And the quantification of PGE2 and LBT4 mediators was performed by an ELISA competitive binding assay. The results were expressed in pg/mL, calculated from the values of references obtained with a standard curve constructed with known concentrations of the mediators of interest (table 2).

TNF-alpha = assay: Production of TNF-alpha in LPS-stimulated human keratinocyte culture (sandwich ELISA)
Protocol: as §1, §2, §4, §5

IL-12 = assay: Production of IL-12 in LPS-stimulated human keratinocyte culture (sandwich ELISA)
Protocol: as §1, §2, §3, §4, §5

IL-10 = assay: Production of IL-10 in LPS-stimulated human keratinocyte culture (sandwich ELISA)
Protocol: as §1, §2, §3, §4, §5

IL-8 = assay: Production of IL-8 in LPS-stimulated human keratinocyte culture (sandwich ELISA)
Protocol: as §1, §2, §3, §4, §5

LTB4 = assay: Production of LTB4 in LPS-stimulated human keratinocyte culture (ELISA competitive binding assay)
Protocol: as §1, §2, §3, §4, §5

| SMILES | Production of inflammatory mediators: IL-1 (IL-1; Dilution: 0.00005 (% w/v)) | Production of inflammatory mediators: IL-1 (IL-1; Dilution: 0.0002 (% w/v)) | Production of inflammatory mediators: TNF-alpha (TNF-alpha; Dilution: 0.00005 (% w/v)) | Production of inflammatory mediators: TNF-alpha (TNF-alpha; Dilution: 0.0002 (% w/v)) | Production of inflammatory mediators: IL-12 (IL-12; Dilution: 0.00005 (% w/v)) | Production of inflammatory mediators: IL-12 (IL-12; Dilution: 0.0002 (% w/v)) | Production of inflammatory mediators: IL-10 (IL-10; Dilution: 0.00005 (% w/v)) | Production of inflammatory mediators: IL-10 (IL-10; Dilution: 0.0002 (% w/v)) | Production of inflammatory mediators: IL-8 (IL-8; Dilution: 0.00005 (% w/v)) | Production of inflammatory mediators: IL-8 (IL-8; Dilution: 0.0002 (% w/v)) | Production of inflammatory mediators: LTB4 (LTB4; Dilution: 0.00005 (% w/v)) | Production of inflammatory mediators: LTB4 (LTB4; Dilution: 0.0002 (% w/v)) |
| --- | --- | --- | --- | --- | --- | --- | --- | --- | --- | --- | --- | --- |
| CC(C)=CCC[C@@](C)(O)[C@H]1CC=C(C)CC1 [Alpha bisabolol, 1-methyl-4-(1,5-dimethyl-1-hydroxy-4(5)-hexenyl)-1-cyclohexene] | 313.43 ± 33.30 pg/mL | 354.74 ± 37.03 pg/mL | 6.64 ± 0.32 pg/mL | 8.00 ± 1.61 pg/mL | 979.50 ± 35.35 pg/mL | 954.50 ± 70.71 pg/mL | 27.15 ± 2.99 pg/mL | 28.30 ± 1.36 pg/mL | 64.23 ± 13.00 pg/mL | 28.90 ± 9.58 pg/mL | 1083.83 ± 115.59 pg/mL | 648.55 ± 11.09 pg/mL |
| CN(Cc1cnc2nc(N)nc(N)c2n1)c1ccc(C(=O)N[C@@H](CCC(=O)O)C(=O)O)cc1 [Methotrexate] | 291.69 ± 34.42 pg/mL | 187.35 ± 26.22 pg/mL |  | 4.82 ± 0.32 pg/mL | 1042.00 ± 53.03 pg/mL | 1004.50 ± 70.71 pg/mL | 29.08 ± 1.36 pg/mL | 23.11 ± 1.08 pg/mL | 39.07 ± 7.53 pg/mL | 19.39 ± 8.00 pg/mL | 1282.15 ± 174.81 pg/mL | 543.82 ± 78.75 pg/mL |
